Test results from patent publication US8981141B1, “I-and II-type crystals of L-A-glyceryl phosphoryl choline, and method for preparing same” (Hanseochem Co., Ltd., priority 2011, dated 2015).
Entries after “also recorded” stand apart in the source; their conditions may differ.

Test: Hygroscopicity test (water content change with time under 30% humidity)
Assay type: physicochemical
Conditions: for hygroscopicity (result in words): humidity condition of 30% for 10 hours; for water content after being left under humidity: humidity condition of 30%, after about 10 hours; for initial water content: raw material before exposure to humidity condition of 30%
Protocol: In the figure, X axis indicates the elapse time and Y axis the water content.
In case of the polymorphic crystal, however, the initial water content was 2.9% but increased to 4.2% after 10 hours due to absorption moisture from air.

Row | hygroscopicity (result in words) | water content after being left under humidity [%] | initial water content [%] | SMILES
1 | very low hygroscopicity | 6.5 | 6.5 | C[N+](C)(C)CCOP(=O)(O)OC[C@H](O)CO [Type II crystal, L-alpha-glyceryl phosphoryl choline]
2 | very low hygroscopicity | 0.2 | 0.1 | C[N+](C)(C)CCOP(=O)(O)OC[C@H](O)CO [Type I crystal, L-alpha-glyceryl phosphoryl choline]

Row | SMILES | hygroscopicity (result in words) | water content after being left under humidity [%] | initial water content [%]
3 | C[N+](C)(C)CCOP(=O)(O)OC[C@H](O)CO [polymorphic crystal, L-alpha-glyceryl phosphoryl choline, reference compound] | relatively very hygroscopic; also recorded: high hygroscopicity | 4.2 | 2.9
